Test results published in publication PMC6366416, “Synthesis and in vitro anticancer activity of certain novel 1-(2-methyl-6-arylpyridin-3-yl)-3-phenylureas as apoptosis-inducing agents” (Journal of Enzyme Inhibition and Medicinal Chemistry, 2019).

Tests used:
A498 = experiment: NCI one-dose SRB growth inhibition; format: cell-based; details: Homo sapiens, Renal Cancer, 48 h, read-out: GI% A498
Method: (§1) The antitumor assay was performed according to the protocol of the Drug Evaluation Branch, NCI, Bethesda[24–26]. A 48 h drug exposure protocol was adopted, and sulforhodamine B (SRB) assay[27] was utilized to assess the cell growth and viability, as reported earlier[17]^,[28].
(§2) The structures of all the newly synthesized pyridines 5a–l were submitted to the National Cancer Institute (NCI) Developmental Therapeutic Program (www.dtp.nci.nih.gov). […] Nine different types of cancer were tested in this assay: colon, ovarian, prostate, leukemia, melanoma, CNS, renal, breast and lung cancers. A 48 h drug exposure protocol was adopted, and sulforhodamine B (SRB) assay[27] was utilized to assess the cell growth and viability.

HCT-116 = experiment: NCI one-dose SRB growth inhibition; format: cell-based; details: Homo sapiens, HCT-116, 48 h, Colon Cancer, read-out: GI% HCT-116
Method: as §1, §2

HL-60(TB) = experiment: NCI one-dose SRB growth inhibition; format: cell-based; details: Homo sapiens, Leukemia, 48 h, read-out: GI% HL-60(TB)
Method: as §1, §2

HOP-92 = experiment: NCI one-dose SRB growth inhibition; format: cell-based; details: Homo sapiens, Non-Small Cell Lung Cancer, 48 h, read-out: GI% HOP-92
Method: as §1, §2

HS 578T = experiment: NCI one-dose SRB growth inhibition; format: cell-based; details: Homo sapiens, Breast Cancer, 48 h, read-out: GI% HS 578T
Method: as §1, §2

K-562 = experiment: NCI one-dose SRB growth inhibition; format: cell-based; details: Homo sapiens, K562, 48 h, Leukemia, read-out: GI% K-562
Method: as §1, §2

KM12 = experiment: NCI one-dose SRB growth inhibition; format: cell-based; details: Homo sapiens, Colon Cancer, 48 h, read-out: GI% KM12
Method: as §1, §2

M14 = experiment: NCI one-dose SRB growth inhibition; format: cell-based; details: Homo sapiens, M14, 48 h, Melanoma, read-out: GI% M14
Method: as §1, §2

MDA-MB-468 = experiment: NCI one-dose SRB growth inhibition; format: cell-based; details: Homo sapiens, Breast Cancer, 48 h, read-out: GI% MDA-MB-468
Method: as §1, §2

MOLT-4 = experiment: NCI one-dose SRB growth inhibition; format: cell-based; details: Homo sapiens, Leukemia, 48 h, read-out: GI% MOLT-4
Method: as §1, §2

NCI-H226 = experiment: NCI one-dose SRB growth inhibition; format: cell-based; details: Homo sapiens, Non-Small Cell Lung Cancer, 48 h, read-out: GI% NCI-H226
Method: as §1, §2

NCI-H23 = experiment: NCI one-dose SRB growth inhibition; format: cell-based; details: Homo sapiens, Non-Small Cell Lung Cancer, 48 h, read-out: GI% NCI-H23
Method: as §1, §2

NCI-H460 = experiment: NCI one-dose SRB growth inhibition; format: cell-based; details: Homo sapiens, Non-Small Cell Lung Cancer, 48 h, read-out: GI% NCI-H460
Method: as §1, §2

NCI-H522 = experiment: NCI one-dose SRB growth inhibition; format: cell-based; details: Homo sapiens, NCI-H522, 48 h, Non-Small Cell Lung Cancer, read-out: GI% NCI-H522
Method: as §1, §2

NCI/ADR-RES = experiment: NCI one-dose SRB growth inhibition; format: cell-based; details: Homo sapiens, Ovarian Cancer, 48 h, read-out: GI% NCI/ADR-RES
Method: as §1, §2

SF-539 = experiment: NCI one-dose SRB growth inhibition; format: cell-based; details: Homo sapiens, CNS Cancer, 48 h, read-out: GI% SF-539
Method: as §1, §2

SK-MEL-28 = experiment: NCI one-dose SRB growth inhibition; format: cell-based; details: Homo sapiens, Melanoma, 48 h, read-out: GI% SK-MEL-28
Method: as §1, §2

SK-MEL-2 = experiment: NCI one-dose SRB growth inhibition; format: cell-based; details: Homo sapiens, Melanoma, 48 h, read-out: GI% SK-MEL-2
Method: as §1, §2

SK-MEL-5 = experiment: NCI one-dose SRB growth inhibition; format: cell-based; details: Homo sapiens, Melanoma, 48 h, read-out: GI% SK-MEL-5
Method: as §1, §2

SNB-19 = experiment: NCI one-dose SRB growth inhibition; format: cell-based; details: Homo sapiens, CNS Cancer, 48 h, read-out: GI% SNB-19
Method: as §1, §2

SW-620 = experiment: NCI one-dose SRB growth inhibition; format: cell-based; details: Homo sapiens, Colon Cancer, 48 h, read-out: GI% SW-620
Method: as §1, §2

UACC-257 = experiment: NCI one-dose SRB growth inhibition; format: cell-based; details: Homo sapiens, UACC-257, read-out: GI% UACC-257, Melanoma, 48 h
Method: as §1, §2

[1] = tested on: 60 cancer cell lines (NCI, USA); experiment: NCI one-dose SRB assay, whole panel; format: cell-based, human; details: 10 μM; for Sensitive cell lines no.: cell lines with GI% higher than 10%
Method: as §1, §2

A549 cell line = experiment: MTT anti-proliferative assay; format: cell-based; details: Homo sapiens, 48 h of incubation, mean ± SD of three experiments
Method: (§3) A549 (non-small cell lung cancer cell line) and HCT-116 (human colon cancer cell line), were obtained from American Type Culture Collection (Manassas, VA, USA). The cells were maintained in Dulbecco’s Modified Eagle’s Medium (DMEM) (Sigma-Aldrich, St. Louis, MO), and supplemented with 10% heat-inactivated FBS (Hyclone), 10 μg/mL of insulin (Manufacturer, Sigma, St. Louis, MO, USA), and 1% penicillin-streptomycin. MTT assay[29] was adopted to assess the in vitro antitumor activity of the newly synthesized pyridines 5a–l according to the reported procedures, using Doxorubicin as a standard treatment. Experimental conditions were tested using three replicates (three wells of the 96-well plate per experimental condition) and all experiments were carried out in triplicates. IC50 values were calculated by the use of the equation for Boltzman sigmoidal concentration–response curve using the nonlinear regression fitting models by Graph Pad, Prism version 5 (GraphPad Software Inc., La Jolla, CA).
(§4) All newly synthesized pyridines 5a–l were examined for their anti-proliferative activity towards two cancer cell lines: non-small cell lung cancer A549 cell line and colon cancer HCT-116 cell line. The MTT colorimetric assay was adopted to assess the anti-proliferative activity as described by Mosmann[29]. Doxorubicin was used as a control in this assay.

HCT-116 cell line = experiment: MTT anti-proliferative assay; format: cell-based; details: Homo sapiens, 48 h of incubation, mean ± SD of three experiments
Method: as §3, §4

WI-38 cell line = experiment: MTT cytotoxicity towards non-tumorigenic cells; format: cell-based, human; details: for IC50: WI-38, MTT, non-tumorigenic human lung fibroblast, mean ± SD of three experiments; for S. I. WI-38/A549: selectivity index, IC50 WI-38 / IC50 A549
Method: The cytotoxic activity of all synthesized pyridines 5a–l were assessed against non-tumorigenic human lung fibroblast WI-38 cell line to investigate their safety, using the MTT colorimetric assay.

## Cc1nc(-c2ccc(F)cc2)ccc1NC(=O)Nc1cccc(C(F)(F)F)c1 [Compound 5a, 1-(6-(4-Fluorophenyl)-2-methylpyridin-3-yl)-3-(3-(trifluoromethyl)phenyl)urea]
A498
  inhibition at 10 µM: < 10%
HCT-116
  inhibition at 10 µM: > 40%
HL-60(TB)
  inhibition at 10 µM: 11%
HOP-92
  inhibition at 10 µM: < 10%
HS 578T
  inhibition at 10 µM: < 10%
K-562
  inhibition at 10 µM: > 40%
KM12
  inhibition at 10 µM: 37%
M14
  inhibition at 10 µM: > 40%
MDA-MB-468
  inhibition at 10 µM: 32%
MOLT-4
  inhibition at 10 µM: 33%
NCI-H226
  inhibition at 10 µM: 18%
NCI-H23
  inhibition at 10 µM: 24%
NCI-H460
  inhibition at 10 µM: 34%
NCI-H522
  inhibition at 10 µM: > 40%
NCI/ADR-RES
  inhibition at 10 µM: 20%
SF-539
  inhibition at 10 µM: < 10%
SK-MEL-28
  inhibition at 10 µM: 20%
SK-MEL-2
  inhibition at 10 µM: < 10%
SK-MEL-5
  inhibition at 10 µM: 32%
SNB-19
  inhibition at 10 µM: 15%
SW-620
  inhibition at 10 µM: < 10%
UACC-257
  inhibition at 10 µM: 38%
[1]
  Sensitive cell lines no.: 42
[1]; mean over NCI panel
  mean % GI: 22%
A549 cell line
  IC50: 6.83 ± 0.42 µM
HCT-116 cell line
  IC50: 5.49 ± 0.3 µM
WI-38 cell line
  IC50: 93.5 ± 5.28 µM
  S. I. WI-38/A549: 13.7
other
  melting point: 223 to 225 °C

## CCOC(=O)c1ccc(NC(=O)Nc2ccc(-c3ccc(F)cc3)nc2C)cc1 [Compound 5c, Ethyl 4-(3-(6-(4-fluorophenyl)-2-methylpyridin-3-yl)ureido)benzoate]
A498
  inhibition at 10 µM: < 10%
HCT-116
  inhibition at 10 µM: < 10%
HL-60(TB)
  inhibition at 10 µM: 13%
HOP-92
  inhibition at 10 µM: < 10%
HS 578T
  inhibition at 10 µM: < 10%
K-562
  inhibition at 10 µM: < 10%
KM12
  inhibition at 10 µM: < 10%
M14
  inhibition at 10 µM: 38%
MDA-MB-468
  inhibition at 10 µM: < 10%
MOLT-4
  inhibition at 10 µM: < 10%
NCI-H226
  inhibition at 10 µM: 12%
NCI-H23
  inhibition at 10 µM: < 10%
NCI-H460
  inhibition at 10 µM: < 10%
NCI-H522
  inhibition at 10 µM: 24%
NCI/ADR-RES
  inhibition at 10 µM: < 10%
SF-539
  inhibition at 10 µM: < 10%
SK-MEL-28
  inhibition at 10 µM: < 10%
SK-MEL-2
  inhibition at 10 µM: < 10%
SK-MEL-5
  inhibition at 10 µM: 38%
SNB-19
  inhibition at 10 µM: < 10%
SW-620
  inhibition at 10 µM: < 10%
UACC-257
  inhibition at 10 µM: 29%
[1]
  Sensitive cell lines no.: 13
A549 cell line
  IC50: 9.61 ± 1.03 µM
WI-38 cell line
  IC50: 123 ± 10.2 µM
  S. I. WI-38/A549: 12.8
other
  melting point: 209 to 211 °C
